# Measurements taken from patent US9107928B2, “Compositions and methods for treating ophthalmic disorders” (Dyax Corp., priority 2006, dated 2015).
# Where no end group is shown, it is not given here.
# How the values were obtained:
# Format in all cases: in vivo
# [1] = system: pig model of RVO (branch retinal vein occlusion); test: Evans Blue dye retinal concentration (extra-cellular retinal oedema) in a pig model of RVO; details: 21.2 μg/eye intra-vitreally immediately following RVO, 24 h following RVO, p<0.01
# Procedure: The amount of Evans Blue dye concentration into the retinal tissue reflects plasma extravasation and the extent of oedema. Control values represent retina Evans Blue Dye content of 2 eyes that were left non-operated and non-treated whilst sham-operated eyes (n=4) were submitted to the surgical procedure but without occlusion (See Methods). Values are mean±s.e.mean. Comparison of values was performed by a one-way ANOVA following by a student t-test. **, p<0.01
# (§1) Mixed breed (Large White×Landrace×Pietrain) female pigs weighing 50 to 60 kg aged of 5 to 6 months were used. Following intramuscular injection of ketamine (10 mg/kg), azaperone (2 mg/kg) and atropine (0.02 mg/kg), anesthesia was induced by intravenous sodium thiopental (10 mg/kg). After tracheal intubation, anesthesia was maintained with isoflurane (1-2% in 100% O2) using a Hallowell ventilator (15 to 20 rpm; pressure at 20 cmH2O).
# Pupil was dilated by tropicamide. […] Completion of the occlusion was assessed by the complete arrest of blood flow upstream of the occlusion site. […]
# After OCT measurement, each animal received Evans Blue dye at 45 mg/kg i.v. and venous blood samples (approximately 1 ml) were obtained at 15 minutes intervals for 2 hours. […] Evans Blue dye concentration in plasma samples and in retina tissue was measured by spectrophotometry at both 620 nm and 740 nm.
# [2] = system: pig model of RVO (branch retinal vein occlusion); test: Spontaneous retinal vein reperfusion 24 h after RVO in the pig; details: 21.2 μg/eye intra-vitreally immediately following RVO
# Procedure: as §1
# (§2) Pupil was dilated by tropicamide. Conjunctival disinsertion was followed by a 0.9 mm sclerotomy, 3 mm from the limbus. The fundus was observed using a plano-concave lens and the axial light of the operating microscope (Microscope OPMI 6-C, Zeiss, Germany). Branch retinal vein occlusion (RVO) of the major temporal vein was performed by transvitreal cauterization using a 300 micron probe (GN 300, Aesculap, Tuttlingen, Germany). Completion of the occlusion was assessed by the complete arrest of blood flow upstream of the occlusion site. Both eyes were submitted to RVO.
# Animals that were submitted to RVO were randomised to receive either the vehicle or the drug (10 to 14 pigs/group). Accordingly, 100 μl of SEQ ID No 23 in solution (dosage of 21.2 μg/eye) or of the corresponding vehicle (saline) was injected intra-vitreally, immediately following RVO.
# [3] = system: pig model of RVO (branch retinal vein occlusion); test: OCT-measured maximal retinal thickness in a pig model of RVO; details: 21.2 μg/eye intra-vitreally immediately following RVO, 24 h after RVO
# Procedure: Maximal retina thickness was determined 24 h after RVO from Optical Coherence Tomography images. Values are mean±s.e.mean. Comparison of values was performed by a one-way ANOVA following by a student t-test.
# as §1, §2
# Animals that were submitted to RVO were randomised to receive either the vehicle or the drug (10 to 14 pigs/group). […]
sequence,measurement,setting,value
EAMHSFCAFKADDGPCRAAHPRWFFNIFTRQCEEFIYGGCEGNQNRFESLEECKKMCTRD (cysteine pairing not given here) [SEQ ID No 23],Reduction of Evans Blue dye retinal concentration (extent of extra-cellular oedema),[1],47%
same,"% of reperfused retinal vein at 24 h (spontaneous reperfusion, treated eyes)",[2],30%
same,Number of reperfused retinal vein at 24 h,[2]; 13 pigs/26 eyes,8
same,Increase of maximal retinal thickness as measured by OCT,[3],did not modify the increase of maximal retinal thickness
